Read-outs that look alike come from different tables or passages of the source.
How the values were obtained:
[1] = tested on: PZ-HPV-7 cells; assay: Chemosensitivity (MTT cytotoxicity) assay; format: cell-based; settings: Homo sapiens; PZ-HPV-7, MTT; read-out: IC50 of chemical agent
Procedure: Three agents, including caffeic acid phenethyl ester (CAPE; Sigma, US), Adriamycin™ (doxorubicin) (Pharmacia & Upjohn S.P.A. Milan, Italy), and paclitaxel (Taxol; Bristol-Myers Squibb Co., Wallingford, Conn.), were dissolved in DMSO (dimethyl sulfoxide; Sigma) for preparation of stock solution, respectively. A serial dilution was prepared with DPBS buffer for chemosensitivity tests. […] Both types of prostate stable transfectants were only treated with paclitaxel for eight concentrations ranging from 0.1 mM to 1.28 nM with 1/5 dilution each step.

[2] = tested on: H520 stable transfectants; assay: Chemosensitivity (MTT cytotoxicity) of stable transfectants; format: cell-based; settings: Homo sapiens, read-out: IC50 of chemical agent
Excerpt: (§1) Three human cancer cell lines, including lung cancer cell line H520 and two human prostate cancer cell lines (PC-3 and DU145) were applied for selection of stable transfectants. Four expression plasmids, including pNCRMP1, pNCN1, pNCN3, and pNCN4, and the pCI-neo vector (as control plasmid) were used for transfection, respectively. The general cultivation condition and transfection procedures were the same as described in Example 3. The transfected cells were further cultivated under the same conditions as their parental cell lines and selected with 0.6-1 mg antibiotic G418 per ml (Kao et al., Oncogene 16: 546-554 (1998); Xiaolin et al, Cancer Research 65: 9762-9770 (2005)).
(§2) Three agents, including caffeic acid phenethyl ester (CAPE; Sigma, US), Adriamycin™ (doxorubicin) (Pharmacia & Upjohn S.P.A. Milan, Italy), and paclitaxel (Taxol; Bristol-Myers Squibb Co., Wallingford, Conn.), were dissolved in DMSO (dimethyl sulfoxide; Sigma) for preparation of stock solution, respectively. A serial dilution was prepared with DPBS buffer for chemosensitivity tests. The human lung squamous carcinoma stable transfectants H520 were treated with both CAPE and Adriamycin™ (doxorubicin) for four different concentrations, e.g. 0.05, 0.01, 0.002, and 0.0004 mM, while the administering of paclitaxel was performed at different concentrations, e.g. 1000, 200, 40, and 8 nM. Both types of prostate stable transfectants were only treated with paclitaxel for eight concentrations ranging from 0.1 mM to 1.28 nM with 1/5 dilution each step.
(§3) MTT (3-(4,5-dimethylthiazol-2-yl)-2,5-diphenyltetrazolium bromide; Sigma, Inc.) assay (Monks et al., J. Natl. Cancer Inst. 83:757-766 (1991); Paull et al, J. Natl. Cancer Inst. 81:1088-1092 (1989)) was applied for studying the cytotoxic effect of indicated agent. The absorbance was measured both at 545 nm and at 690 nm (served as reference) using the 96-well spectrophotometer reader (Emax, Molecular Device Inc., California, US) (Chen et al., Yi Xue Za Zhi (Taipei) 46:7-16 (1990)). The relative growth inhibition was calculated as follows: Relative growth inhibition=100%×(1−(OD545nm (Treated cells)−OD690nm(Treated cells))÷(OD545nm(untreated cells)−OD690nm(untreated cells)))
(§4) The 50% inhibition concentration (IC50) was determined after graphical plotting of spectrophotometric measurements and interpolation by EXCEL software.

[3] = tested on: DU145 stable transfectants; assay: as above; format: cell-based; settings: Homo sapiens, read-out: IC50 of chemical agent
Excerpt: as §1, §2, §3, §4

[4] = tested on: PC-3 transient transfectants; assay: Chemosensitivity of transient transfectants (cell counting); format: cell-based; settings: Homo sapiens, 72 h, read-out: IC50 of chemical agent
Procedure: (§5) Six human cancer cell lines, including human colon cancer cell lines Caco-2, CC-M1, DLD-1; human prostate cancer cell lines DU145, PC-3; and human breast cancer cell line MCF-7, were tested in an experiment on improvement of chemosensitivity. Two expression plasmids, pNCRMP1 and pNCN3, and the pCI-neo vector (control plasmid), were used for transfection, respectively. The general cultivation conditions and transfection procedures were the same as described in Example 3.
(§6) Treatment of transient transfected cell lines using chemical agent was immediately performed as follows, and quantification of viable cells was performed by counting using hemocytometer after 3-days incubation at 37° C.: • (1) Three types of transient transfected human colorectal cancer cells were treated with 5-fluorouracil; • (2) The transient transfected human prostate cancer cell line DU145 was treated with Adriamycin™ (doxorubicin), cyclophosphamide and etoposide; • (3) The transient transfected human prostate cancer cell line PC3 was treated with cyclophosphamide, etoposide, and paclitaxel; and, • (4) The transient transfected human breast cancer cell line MCF-7 was treated with Adriamycin™ (doxorubicin) and paclitaxel.

[5] = tested on: MCF-7 transient transfectants; assay: as above; format: cell-based; settings: Homo sapiens, MCF7, 72 h, read-out: IC50 of chemical agent
Procedure: as §5, §6

[6] = tested on: PC-3 cells; assay: Cytotoxic effect of recombinant e-rCN3 protein; format: cell-based, human; settings: 5 μM applied twice for 6 hours with an interval of 16 hours
Procedure: (§7) The growth inhibition effect of recombinant e-rCN3 protein was studied with five human cell lines, including the human colon cancer cell line CC-M1, the human breast cancer cell line MCF-7, two human prostate cancer cell lines PC-3 and DU145, and the human prostate epithelium cell line PZ-HPV-7. […] The cytotoxicity assay were performed using MTT method as described by Monks et al. (J. National Cancer Institute 83:757-767 (1991)) or using cell counting-based Hemocytometer method (R. Ian Freshney, WILEY-LISS: 186, 309-312 (2000)) as described in Example 3 and Example 9. Five micromolar (μM) e-rCN3 was applied twice on three prostate cell lines for 6 hours with an interval of 16 hours, while the human colon cancer cell and breast cancer cells were treated with three cycles.

[7] = tested on: CC-M1 cells; assay: Cytotoxic effect of recombinant e-rCN3 protein; format: cell-based, human; settings: 5 μM, three treatment cycles
Procedure: as §7

[8] = tested on: PZ-HPV-7 cells; assay: Cytotoxic effect of recombinant e-rCN3 protein; format: cell-based, human; settings: 5 μM applied twice for 6 hours with an interval of 16 hours
Procedure: as §7

[9] = tested on: MCF-7 cells; assay: Cytotoxic effect of recombinant e-rCN3 protein; format: cell-based, human; settings: 5 μM, three treatment cycles
Procedure: as §7

CC(=O)O[C@H]1C(=O)[C@@]2(C)[C@H]([C@H](OC(=O)c3ccccc3)[C@]3(O)C[C@H](OC(=O)[C@H](O)[C@@H](NC(=O)c4ccccc4)c4ccccc4)C(C)=C1C3(C)C)[C@]1(OC(C)=O)CO[C@@H]1C[C@@H]2O [paclitaxel]
IC50 [1]: 6530 nM
IC50 ([2]; NCI-H520, stable transfectant H520/pCI-neo/1 (control plasmid), MTT): 31 nM
IC50 ([2]; NCI-H520, stable transfectant H520/pNCN1/1, MTT): 12 nM
IC50 ([2]; NCI-H520, stable transfectant H520/pNCN3/1, MTT): < 8 nM
IC50 ([2]; NCI-H520, stable transfectant H520/pNCN4/1, MTT): < 8 nM
IC50 ([2]; NCI-H520, stable transfectant H520/pNCRMP1/1, MTT): 12 nM
IC50 ([3]; DU-145, stable transfectant DU145/pCI-neo/7 (control plasmid), MTT): 8000 nM
IC50 ([3]; DU-145, stable transfectant DU145/pNCRMP1/2, MTT): 20 nM
IC50 ([4]; transient transfectant PC-3/pCIneo (control plasmid), 3-days incubation): 87 nM
IC50 ([4]; transient transfectant PC-3/pNCN3, 3-days incubation): 10 nM
IC50 ([4]; transient transfectant PC-3/pNCRMP1, 3-days incubation): 69 nM
IC50 ([5]; transient transfectant MCF-7/pCIneo (control plasmid), 3-days incubation): < 1 nM
IC50 ([5]; transient transfectant MCF-7/pNCN3, 3-days incubation): 44 nM
IC50 ([5]; transient transfectant MCF-7/pNCRMP1, 3-days incubation): < 1 nM

e-rCN3: recombinant CN3 domain of hCRMP-1 (amino acids 208 to 480) expressed in E. coli from pE22bCN3
growth inhibition effect [6]: approximately 40%
growth inhibition effect [7]: over 60%
growth inhibition effect [8]: no growth inhibition effect
growth inhibition effect [9]: over 60%

— US7741464B2, “Compositions and methods of using CRMP-1 and its fragments for treating cancer” (Advpharma Inc., priority 2007, dated 2010)
